The values that follow come from publication PMC4745082, “A Novel PET Imaging Probe for the Detection and Monitoring of Translocator Protein 18 kDa Expression in Pathological Disorders” (Scientific Reports, 2016).

Broadly, the logD is lipophilicity at a set pH, counting ionised and neutral species.

The nature of data set [1]: Log D determination (n-octanol / sodium phosphate buffer pH 7.4). The data set is classed as physicochemical. As to conditions: n-octanol / sodium phosphate buffer 0.15 M pH 7.4, measured four times. As to the method: After vortexing for 1 min, each tube was then stored for 3 min at room temperature and the phases were separated. Samples of each phase (100 μL) were counted for radioactivity. Log D is expressed as the logarithm of the ratio of the counts from n-octanol versus that of the sodium phosphate buffer.

Data set [2] is classed as in vitro ADME. As to conditions: 2 h. The procedure:
The in vitro stability of [^18F]CB251 was assayed by monitoring both the radio-TLC and the radio-HPLC profiles to determine its radiochemical purity. To assess the in vitro serum stability, 100 μL of [^18F]CB251 in 10% EtOH/saline was incubated with 0.5 mL of human serum from a healthy volunteer for 2 h at 37 °C and the solution was analysed at 0, 10, 30, 60 and 120 min by a radio-TLC scanner using MeOH-CH2Cl2 (5:95) as the developing solvent. Separately, 100 μL of [^18F]CB251 in 10% EtOH/saline was also incubated with 0.9 mL of human serum from a healthy volunteer for 2 h at 37 °C. Aliquots (200 μL) were taken from the sample at time points of 0, 30, 60 and 120 min and mixed with absolute acetonitrile (200 μL). The mixture was centrifuged (3500 rpm, 5 min) to precipitate out serum proteins. The resulting supernatant including the authentic CB251 (1.0 mg/2.0 mL of CH3CN, 20 μL) was filtered through a 0.45 μm GH Polypro (GHP) membrane Disc filter before HPLC analysis to determine the fraction of intact radiotracer. Samples were analysed by HPLC (Waters, Xterra RP-18, 5 μm, 4.6 × 250 mm; eluant: 60% CH3CN/H2O; flow rate: 1 mL/min; guard column 10 × 10 mm).

Data set [3] concerns human glioblastoma U87-MG xenografts. Also noted: species or system mice. As to conditions: mouse, in vivo. The procedure: Another in vivo test of [^18F]CB251 was performed in U87-MG-bearing mice using a microPET scanner (Fig. 6). Tumour cells were engrafted on the left thigh of Balb/c nude mice. [^18F]CB251 was administered intravenously after the tumour volume reached approximately 364.5 ± 32.2 mm^3 and a dynamic PET scan was performed. […] In particular, [^18F]CB251 provided a tumour accumulation (1.96 ± 0.11%ID/g at 1 h post injection) and a visible image of the tumour in summed PET images.
U87-MG cells (ATCC) were cultured in Dulbecco’s modified Eagle’s medium supplemented with 4 mM L-glutamine, 4,500 mg/L glucose, 1 mM sodium pyruvate, […] sodium bicarbonate, 10% FBS and antibiotic-antimycotic (Gibco, Grand Island, NY, USA) at 37 °C in a humidified atmosphere of 5% CO2. U87-MG cells were cultured for 2–3 days without changing the medium and were harvested with trypsin-EDTA in PBS. Male Balb/c nu/nu mice, obtained at 6–7 weeks of age (Orient Bio Inc., Seongnam, Korea), were subcutaneously injected in the right shoulder with 5 × 10^6 U87-MG cells suspended in 100 μL of 100 mM PBS (pH 7.4). Animal protocols were approved by the Seoul National University Bundang Hospital Animal Care and Use Committee and the methods were carried out in accordance with the approved guidelines. We also performed calliper measurements of the longest perpendicular tumour diameters.
Five LPS-induced neuroinflammation rats (219.2 ± 14.1 g) were used for brain PET imaging at 4 days post-LPS injection. Before the scan, the rats were anesthetized with 2% isoflurane in a 7:3 mixture of N2/O2. PET imaging of the rat brain was performed in a dedicated small animal PET/CT (NanoPET/CT, Bioscan, Inc., U.S.A.) with a 10-cm axial field-of-view (FOV) and a 12-cm transaxial FOV. […] Regional uptake of radioactivity was decay-corrected to the injection time and was expressed as the standardized uptake value (SUV), which was normalized to the injected radioactivity and animal body weight. […]

Turning to `CCCN(CCC)C(=O)Cc1c(-c2ccc(OCC[18F])cc2)nc2c(Cl)cc(Cl)cn12` [[^18F]CB251, 2-(2-(4-(2-[^18F]fluoroethoxy)phenyl)-6,8-dichloroimidazo[1,2-a]pyridin-3-yl)-N,N-dipropylacetamide], in data set [1], the pH-dependent lipophilicity (logD) came out at 3 ± 0.03. Moreover, the “radioactive parent remaining in human serum” value in data set [2] is recorded as “greater than 99%”. For the same compound, the tumour uptake in data set [3] (male, Balb/c nu/nu, 1 h) was determined as 1.96 ± 0.11 %ID/g. Moreover, in data set [3], the “bladder and muscle uptake” value is reported as “low”; the kidney uptake result is “high”.
